Laboratory results reported in article PMC6994123, “A mosquito juvenile hormone binding protein (mJHBP) regulates the activation of innate immune defenses and hemocyte development” (PLoS Pathogens, 2020).

How the values were obtained:
mJHBP [1] = target: T1, mJHBP (Aedes aegypti, UniProt Q16Y94); experiment: isothermal titration calorimetry, single-site fit; assay type: binding; settings: read-out: Ka
T1 construct: gene 5570847; two OBP domains; gel filtration, Q-Sepharose and Phenyl-Sepharose purified; probably mature protein
T1 sequence (Q16Y94 25-311): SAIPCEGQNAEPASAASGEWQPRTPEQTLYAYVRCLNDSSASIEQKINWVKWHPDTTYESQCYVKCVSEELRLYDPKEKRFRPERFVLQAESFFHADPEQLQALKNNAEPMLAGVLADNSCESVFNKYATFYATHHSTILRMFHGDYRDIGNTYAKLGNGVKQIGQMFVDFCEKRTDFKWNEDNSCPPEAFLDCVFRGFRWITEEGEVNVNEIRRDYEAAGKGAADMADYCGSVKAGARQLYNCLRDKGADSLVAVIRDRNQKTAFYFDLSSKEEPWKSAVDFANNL
Excerpt: isothermal titration calorimetry, single-site fit on mJHBP | wild type mJHBP.

mJHBP [2] = target: T2, mJHBP (Aedes aegypti, UniProt Q16Y94, Y152F); experiment: isothermal titration calorimetry, single-site fit; assay type: binding; settings: read-out: Ka (converted)
T2 construct: gene 5570847; two OBP domains; gel filtration, Q-Sepharose and Phenyl-Sepharose purified; probably mature protein
T2 sequence (Q16Y94 25-311 Y152F): T1 sequence (Q16Y94 25-311)
Excerpt: isothermal titration calorimetry, single-site fit on mJHBP | Y129F mutant.

Which results are given for `COC(=O)/C=C(\C)CC/C=C(\C)CC[C@H]1OC1(C)C` [JH III, juvenile hormone III]?
Kd (mJHBP [1]): 100 nM; Kd (mJHBP [2]): 1090 nM
